Laboratory results published in US8217022B2, “Analogues of 1,3-bis(4-nitrophenyl)triazenes, their pharmaceutically acceptable salts and N-acyl derivatives for tumour treatment” (Rudjer Boskovic Institute, priority 2009, dated 2012).
Read-outs that look alike come from different tables or passages of the source.

How the values were obtained:
mammalian cells = details: from publication, read-out: cytotoxicity IC50; cited from earlier work
[1] = test system: human cervical carcinoma HeLa cells; assay: Cytotoxicity by spectrophotometric MTT method on HeLa cells; format: cell-based; details: for IC50: MTT
Method: (§1) The human cervical carcinoma HeLa cells were used as a model for testing the cytotoxicity of new compounds. Said cells grow as single-layer culture in nutrient Dulbecco's modified Eagle's medium (DMEM, Gibco Life Technologies, Grand Island, USA) with 10% of fetal bovine serum (Gibco) and antibiotics (penicillin 100 U, streptomicine 0.1 mg, Sigma Chem. Co., St. Louis, USA). They were grown in thermostat at 37° C. with 5% CO2 in a humidified atmosphere in plastic cell culture flasks (BD Falcon, Germany).
The compounds were dissolved in dimethyl sulfoxide (Merck, Darmstadt, Germany) in concentrations of 20-120 mM (depending on the compound) and stored in aliquots at −20° C. as stock solutions. The stock solutions were diluted to the appropriate concentrations just before the experiments.
(§2) The cytotoxicity of new compounds was determined by spectrophotometric MTT method (Michisch et al., Urol Res 18(990)131). It is a colorimetric method based on the ability of living cells to reduce the yellow tetrazolium salt 3-(4,5-dimethylthiazol-2-yl)-2,5-diphenyltetrazolium bromide) (MTT; Merck) to violet formazane crystals using mitochondrial dehydrogenase and cytochrome b and c. The crystals were dissolved in dimethyl sulfoxide (DMSO), followed by spectrophotometric measurement of their absorbance at 545 nm.
(§3) Cells were seeded in 96-well microtitration plates (BD Falcon) (2.5×10^3/180 μl), and incubated overnight at temperature of 37° C. to allow the cells to attach to the growth medium. Next day the compounds were added to the growth medium in a wide range of concentrations, from 0.05 to 100 μM (each concentration in quadruplicate). After 72 hours, the samples were coloured with the MTT dye and left for 3 hours in the thermostat. Formed crystals were dissolved in dimethyl sulfoxide and the absorbance of each sample was measured at 545 nm. The survival of cells was calculated according to the formula: […]
The experiments were repeated 2-3 times. […] IC50 values were read from the curve. IC50 is the concentration of a compound that reduces the survival of treated cells to 50%.
The cytotoxicity of the new compounds was determined on human cervical carcinoma HeLa cells by the spectrophotometric MTT method. It is expressed as IC50 value, i.e. as the concentration of a compound that reduces cell survival to 50%.

glioblastoma A1235 cells = assay: Cytotoxicity by MTT method on A1235 cells; format: cell-based; details: Table 2
[2] = test system: laryngeal carcinoma HEp-2 cells; assay: Cytotoxicity by MTT method on HEp-2 cells; format: cell-based
[3] = test system: rhabdomiosarcoma RD cells; assay: Cytotoxicity by MTT method on RD cells; format: cell-based; details: Table 2
[4] = test system: human ovarian adenocarcinoma OVCAR cells; assay: Cytotoxicity by MTT method on OVCAR cells; format: cell-based; details: Table 2
[5] = test system: human embryonic kidney HEK 293 cells; assay: Cytotoxicity by MTT method on HEK 293 cells; format: cell-based; details: HEK 293, MTT; Table 2
[6] = test system: normal human cells, keratinocytes; assay: Cytotoxicity on keratinocytes, survival by crystal violet dye; format: cell-based; details: Table 2
Method: as §1
The compounds were dissolved in dimethyl sulfoxide (Merck, Darmstadt, Germany) in concentrations of 20-120 mM (depending on the compound) and stored in aliquots at −20° C. as stock solutions. […]
Cells were seeded in 96-well microtitration plates (BD Falcon) (2.5×10^3/180 μl), and incubated overnight at temperature of 37° C. to allow the cells to attach to the growth medium. […] Formed crystals were dissolved in dimethyl sulfoxide and the absorbance of each sample was measured at 545 nm. The survival of cells was calculated according to the formula: […]
(§4) The experiments were repeated 2-3 times. […] IC50 values were read from the curve. […]
The cytotoxicity was determined by spectrophotometric MTT method (except for keratinocytes, which have low metabolic activity, so their survival was determined by addition of crystal violet dye) and expressed as IC50.

[7] = test system: HeLa CK cells resistant to cisplatin and cross-resistant to vincristine and methotrexate; assay: Cytotoxicity by MTT method on HeLa CK resistant sub-line; format: cell-based, human; details: Table 3
Method: as §2
as §3, with “After 72 hours, the samples were coloured with the MTT dye and left for 3 hours in the thermostat.” left out
as §4
It was tested on parental cervical carcinoma HeLa cells and their sub-line HeLa CK cells resistant to cisplatin and cross-resistant to vincristine and methotrexate (Osmak and Eljuga, Res Exp Med 193(1993) 389). […] Cytotoxicity was determined by spectrophotometric MTT method and expressed as IC50.

[8] = test system: CA3 cells resistant to cisplatin and cross-resistant to vincristine, methotrexate and mitomycin C; assay: Cytotoxicity by MTT method on CA3 resistant sub-line; format: cell-based; details: Table 3
[9] = HeLa cells, 72 hours, Table 1, read-out: Cytotoxicity (IC50 μM)

In the case of `N=C(N)c1ccc(N=NNc2ccc(C(=N)N)cc2)cc1` [berenil, Berenil], the IC50 (mammalian cells) is given as over 100 µM.

`O=[N+]([O-])c1ccc(N=NNc2ccc([N+](=O)[O-])cc2Br)c(Br)c1` [VM-97] gave an IC50 [1, 9] of 0.45 µM.

For `O=[N+]([O-])c1ccc(N=NNc2ccc([N+](=O)[O-])cc2Br)c(Br)c1` [VM-94c], the IC50 ([1]; HeLa cells, 72 hours, Table 1, listed as VM 94c, read-out: Cytotoxicity (IC50 μM)) was 3.65 µM, the IC50 ([1]; HeLa parental cells, Table 3, read-out: IC50) was 3.4 µM and the IC50 ([1]; HeLa, Table 2, read-out: IC50) was 3.65 µM. For the same molecule, the IC50 (glioblastoma A1235 cells) was 5.45 µM, the IC50 ([2]; HEp2 parental cells, MTT, Table 3) was 5.5 µM and the IC50 ([2]; HEp-2, MTT, Table 2) was 5.5 µM. The IC50 [3] was 5.1 µM, the IC50 [4] was 3.4 µM and the IC50 [5] was 7.9 µM. For the same molecule, the IC50 [6] was 9.45 µM, the IC50 [7] was 3.9 µM and the IC50 [8] was 7.2 µM.

In the case of `O=[N+]([O-])c1ccc(N=NNc2ccc([N+](=O)[O-])cc2Cl)c(Cl)c1` [VM-102], the IC50 [1, 9] is reported as 2.6 µM.

For `O=[N+]([O-])c1ccc(N=NNc2ccc([N+](=O)[O-])cc2)cc1` [1,3-bis(4-nitrophenyl)triazene], the biological activity ([1]; tested during the testing of the compounds of the invention) was “did not show any biological activity”.
